In brackets after ≈: the same amount, converted by molar mass.
Experiments:
Type in all cases: physicochemical
[1] = Mechanical stability of crystal form A (grinding experiment, XRPD); settings: room temperature
Method: A certain amount of crystal form A of the compound shown in Formula (I) was weighed, and ground dry or wet with an appropriate amount of water for 3 minutes at room temperature (˜23° C., 70% RH) to evaluate the mechanical stability of the crystal form A. The XRPD spectrums are shown in FIG. 6.

[2] = Photostability of crystal form A and amorphous form; settings: for Content (%) / Crystal form / Purity (area %) / Relative to initial (%): After 11 days, 25° C., illumination 5000 lux/h, near-ultraviolet 90 μW/cm^2; for crystal form changes in the photostability test: light conditions
Method: A certain amount of crystal form A and amorphous form of the compound shown in Formula (I) were respectively taken, and the stabilities of crystal form A and amorphous form were evaluated under light conditions.

[3] = Dynamic solubility in citrate buffer solutions at room temperature; settings: for pH: supernatant
Method: During the test, about 200 mg of crystal form A or the amorphous form was added into 5 mL of buffered salt medium (approximately 40 mg/mL), and stirred magnetically at room temperature (approximately 25° C.). 1 mL of the suspension (or clear solution) taken at each of 2, 8, and 30 hours were centrifugated. The obtained solid is for crystal form detection (XRPD), and the supernatant/clear liquid after filtration is for solubility testing (HPLC) and pH testing.

[4] = Solid-state stability, 2-week study (HPLC, XRPD); settings: for crystal form changes in the two-week stability assessment: 25° C./60% RH, 40° C./75% RH, two weeks
Method: The solubility and stability are analyzed using an Agilent 1260 infinityII Binary Pump. • 4.

[5] = Citrate buffer pH = 3.5, room temperature, 2 hours
[6] = Citrate buffer pH = 3.5, room temperature, 8 hours
[7] = Citrate buffer pH = 3.5, room temperature, 30 hours
[8] = Citrate buffer pH = 4.5, room temperature, 2 hours
[9] = Citrate buffer pH = 4.5, room temperature, 8 hours
[10] = Citrate buffer pH = 4.5, room temperature, 30 hours
[11] = citrate buffer pH = 3.5, 2 hours
[12] = citrate buffer pH = 3.5, 8 hours
[13] = citrate buffer pH = 3.5, 30 hours
[14] = citrate buffer pH = 4.5, 2 hours
[15] = citrate buffer pH = 4.5, 8 hours
[16] = citrate buffer pH = 4.5, 30 hours

SMILES: CC(C)[C@H](NC(=O)[C@@H]1CCCN1C(=O)[C@@H](NC(=O)c1ccc(C(=O)NCC(=O)O)cc1)C(C)C)B1OB([C@@H](NC(=O)[C@@H]2CCCN2C(=O)[C@@H](NC(=O)c2ccc(C(=O)NCC(=O)O)cc2)C(C)C)C(C)C)OB([C@@H](NC(=O)[C@@H]2CCCN2C(=O)[C@@H](NC(=O)c2ccc(C(=O)NCC(=O)O)cc2)C(C)C)C(C)C)O1 [Form A]
- Achieved Crystal Form ([1]; Dry grind for 3 minutes): Amorphous
- Achieved Crystal Form ([1]; Dry grind for 3 minutes, listed as crystal form A): transformed into the amorphous form
- Achieved Crystal Form ([1]; Wet grind with water for 3 minutes): Form A
- Achieved Crystal Form ([1]; Wet grind with water for 3 minutes, listed as crystal form A): remains unchanged
- Content (%) [2]: 85.00%
- Crystal form [2]: Form A
- Purity (area %) [2]: 97.92 area %
- Relative to initial (%) [2]: 98.9%
- Initial Sample Content (%) [2]: 87.08%
- Initial Sample Purity (area %) [2]: 99.05 area %
- crystal form changes in the photostability test [2]: neither the amorphous form nor crystal form A underwent crystal form changes
- Solubility [3, 5]: 6.15 mg/mL (≈ 4.1 mM)
- Solubility [3, 6]: 15.28 mg/mL (≈ 10.2 mM)
- Solubility [3, 7]: 27.16 mg/mL (≈ 18.1 mM)
- Solubility [3, 8]: 16.06 mg/mL (≈ 10.7 mM)
- Solubility [3, 9]: 31.34 mg/mL (≈ 20.9 mM)
- Solubility [3, 10]: >34.94 mg/mL
- pH [3, 11]: 3.56
- pH [3, 12]: 3.58
- pH [3, 13]: 3.56
- pH [3, 14]: 4.48
- pH [3, 15]: 4.46
- pH [3, 16]: 4.38
- Content (%) ([4]; 25° C./60 % RH, 1 week): 86.07%
- Crystal form ([4]; 25° C./60 % RH, 1 week): Form A
- Purity (area %) ([4]; 25° C./60 % RH, 1 week): 97.98 area %
- Relative to initial (%) ([4]; 25° C./60 % RH, 1 week): 98.9%
- Content (%) ([4]; 25° C./60 % RH, 2 weeks): 86.60%
- Crystal form ([4]; 25° C./60 % RH, 2 weeks): Form A
- Purity (area %) ([4]; 25° C./60 % RH, 2 weeks): 97.68 area %
- Relative to initial (%) ([4]; 25° C./60 % RH, 2 weeks): 98.6%
- crystal form changes in the two-week stability assessment ([4]; 60° C.): neither the amorphous form nor crystal form A underwent crystal form changes
- Content (%) ([4]; 40° C./75 % RH, 1 week): 86.41%
- Crystal form ([4]; 40° C./75 % RH, 1 week): Form A
- Purity (area %) ([4]; 40° C./75 % RH, 1 week): 97.96 area %
- Relative to initial (%) ([4]; 40° C./75 % RH, 1 week): 98.9%
- Content (%) ([4]; 40° C./75 % RH, 2 weeks): 86.85%
- Crystal form ([4]; 40° C./75 % RH, 2 weeks): Form A
- Purity (area %) ([4]; 40° C./75 % RH, 2 weeks): 97.76 area %
- Relative to initial (%) ([4]; 40° C./75 % RH, 2 weeks): 98.7%
- Content (%) ([4]; 60° C., 1 week): 87.34%
- Crystal form ([4]; 60° C., 1 week): Form A
- Purity (area %) ([4]; 60° C., 1 week): 98.16 area %
- Relative to initial (%) ([4]; 60° C., 1 week): 99.1%
- Content (%) ([4]; 60° C., 2 weeks): 87.98%
- Crystal form ([4]; 60° C., 2 weeks): Form A
- Purity (area %) ([4]; 60° C., 2 weeks): 97.50 area %
- Relative to initial (%) ([4]; 60° C., 2 weeks): 98.4%
- Content (%) ([4]; initial): 87.08%
- Crystal form ([4]; initial): Form A
- Purity (area %) ([4]; initial): 99.05 area %

SMILES: C#Cc1c(F)ccc2cc(O)cc(-c3ncc4c(N5CC6CCC(C5)N6)nc(OC[C@@]56CCCN5C[C@H](F)C6)nc4c3F)c12 [Amorphous]
- Content (%) [2]: 82.68%
- Crystal form [2]: Amorphous
- Purity (area %) [2]: 93.42 area %
- Relative to initial (%) [2]: 94.8%
- Initial Sample Content (%) [2]: 90.28%
- Initial Sample Purity (area %) [2]: 98.56 area %
- crystal form changes in the photostability test [2]: neither the amorphous form nor crystal form A underwent crystal form changes
- Solubility [3, 5]: >37.77 mg/mL
- Solubility [3, 6]: >38.95 mg/mL
- Solubility [3, 7]: >37.45 mg/mL
- Solubility [3, 8]: >33.47 mg/mL
- Solubility [3, 9]: >35.71 mg/mL
- Solubility [3, 10]: >37.52 mg/mL
- solubility in the citrate buffer systems (in words) ([3]; citrate buffer pH=3.5 and pH=4.5): excellent solubility
- pH [3, 11]: 3.63
- pH [3, 12]: 3.59
- pH [3, 13]: 3.56
- pH [3, 14]: 4.46
- pH [3, 15]: 4.44
- pH [3, 16]: 4.40
- Content (%) ([4]; 25° C./60 % RH, 1 week): 88.54%
- Crystal form ([4]; 25° C./60 % RH, 1 week): Amorphous
- Purity (area %) ([4]; 25° C./60 % RH, 1 week): 97.58 area %
- Relative to initial (%) ([4]; 25° C./60 % RH, 1 week): 99.0%
- Content (%) ([4]; 25° C./60 % RH, 2 weeks): 86.62%
- Crystal form ([4]; 25° C./60 % RH, 2 weeks): Amorphous
- Purity (area %) ([4]; 25° C./60 % RH, 2 weeks): 96.98 area %
- Relative to initial (%) ([4]; 25° C./60 % RH, 2 weeks): 98.4%
- crystal form changes in the two-week stability assessment ([4]; 60° C.): neither the amorphous form nor crystal form A underwent crystal form changes
- Content (%) ([4]; 40° C./75 % RH, 1 week): 87.54%
- Crystal form ([4]; 40° C./75 % RH, 1 week): Amorphous
- Purity (area %) ([4]; 40° C./75 % RH, 1 week): 97.87 area %
- Relative to initial (%) ([4]; 40° C./75 % RH, 1 week): 99.3%
- Content (%) ([4]; 40° C./75 % RH, 2 weeks): 86.77%
- Crystal form ([4]; 40° C./75 % RH, 2 weeks): Amorphous
- Purity (area %) ([4]; 40° C./75 % RH, 2 weeks): 96.87 area %
- Relative to initial (%) ([4]; 40° C./75 % RH, 2 weeks): 98.3%
- Content (%) ([4]; 60° C., 1 week): 90.96%
- Crystal form ([4]; 60° C., 1 week): Amorphous
- Purity (area %) ([4]; 60° C., 1 week): 96.97 area %
- Relative to initial (%) ([4]; 60° C., 1 week): 98.4%
- Content (%) ([4]; 60° C., 2 weeks): 88.93%
- Crystal form ([4]; 60° C., 2 weeks): Amorphous
- Purity (area %) ([4]; 60° C., 2 weeks): 96.14 area %
- Relative to initial (%) ([4]; 60° C., 2 weeks): 97.5%
- Content (%) ([4]; initial): 90.28%
- Crystal form ([4]; initial): Amorphous
- Purity (area %) ([4]; initial): 98.56 area %

Source: patent publication US20250213598A1, “COMPOUNDS AS ELASTASE INHIBITOR AND SOLID FORM THEREOF” (priority 2023, published 2025)
